These results are taken from patent publication US8461174B2, “Treatment for cutaneous metastases” (3M Innovative Properties Company, priority 2004, dated 2013).

Assay [1] relates to cutaneous metastasis of Her2/neu-positive breast cancer (invasive lobular tumor cells). Nature of the assay: Topical treatment of cutaneous metastasis of breast cancer in a patient (Example 1). Format: in vivo, human. The following applies: person one. The protocol: (§1) The IRM compound used in the examples is 1-(2-methylpropyl)-1H-imidazo[4,5-c]quinolin-4-amine, formulated as a 5% cream available under the tradename ALDARA (3M Co., St. Paul, Minn.).
person one with breast cancer (UICC stage pT1c, pN1b1, M0, G2, estrogen-positive, progesterone-positive) developed an axillary recurrence and osteolytic metastases (L2-4) despite axillary dissection and neoadjuvant and adjuvant chemotherapy. The recurrent tumor and metastases were treated with radiation. Nine months later, the breast cancer recurred locally (rpT1c, M1, G2, estrogen-negative, progesterone-negative, Her2/neu-positive) and was treated with trastuzumab and percutaneous radiation. An inflammatory erythema occurred on the upper back (FIG. 1A). On histology, invasive lobular tumor cells (keratin-positive, Her2/neu-positive, ICAM-1-positive) were present (FIGS. 1B-1E.
(§2) 1-(2-methylpropyl)-1H-imidazo[4,5-c]quinolin-4-amine was administered topically five times per week for six months.

The test system of assay [2] is cutaneous metastasis of invasive ductal carcinoma (Her2/neu-negative). Kind of assay: Topical treatment of cutaneous metastasis of invasive ductal carcinoma in a patient (Example 2). Type of assay: in vivo, human. As to conditions: person two; 5% cream (ALDARA) topically five times per week for six months. The method, then:
as §1
person two with invasive ductal carcinoma (UICC stage T2, pN1, B2, cM0) that was estrogen-negative, progesterone-negative, and Her2/neu-negative was treated by mastectomy and adjuvant chemotherapy. Infraclavicular and supraclavicular recurrences were treated with γ- and telecobalt radiation, intrarterial and intravenous chemotherapy. A diffuse cutaneous lesion occurred on the scapula that, upon histological examination, contained an infiltrative ductal growth pattern (FIG. 1I).
as §2

Regarding `CC(C)Cn1cnc2c(N)nc3ccccc3c21` [1-(2-methylpropyl)-1H-imidazo[4,5-c]quinolin-4-amine], in assay [1] (5% cream (ALDARA) topically five times per week for six months), the “skin lesions upon gross examination or histological examination after the treatment period” value is recorded as “no skin lesions were detected”. Moreover, the “time the patient has remained free of cutaneous metastasis” value in assay [1] (after topical treatment five times per week for six months) is reported as “more than ten months”. Further, the “skin biopsy of an affected area after the treatment period” value in assay [2] is given as “free of carcinoma cells”.
